# Molecular target: T1, Human 5-lipoxygenase (Homo sapiens, UniProt P09917)
# T1 construct: purchased Cayman 60402; host or cells: insect cells
# T1 sequence (P09917 1-674): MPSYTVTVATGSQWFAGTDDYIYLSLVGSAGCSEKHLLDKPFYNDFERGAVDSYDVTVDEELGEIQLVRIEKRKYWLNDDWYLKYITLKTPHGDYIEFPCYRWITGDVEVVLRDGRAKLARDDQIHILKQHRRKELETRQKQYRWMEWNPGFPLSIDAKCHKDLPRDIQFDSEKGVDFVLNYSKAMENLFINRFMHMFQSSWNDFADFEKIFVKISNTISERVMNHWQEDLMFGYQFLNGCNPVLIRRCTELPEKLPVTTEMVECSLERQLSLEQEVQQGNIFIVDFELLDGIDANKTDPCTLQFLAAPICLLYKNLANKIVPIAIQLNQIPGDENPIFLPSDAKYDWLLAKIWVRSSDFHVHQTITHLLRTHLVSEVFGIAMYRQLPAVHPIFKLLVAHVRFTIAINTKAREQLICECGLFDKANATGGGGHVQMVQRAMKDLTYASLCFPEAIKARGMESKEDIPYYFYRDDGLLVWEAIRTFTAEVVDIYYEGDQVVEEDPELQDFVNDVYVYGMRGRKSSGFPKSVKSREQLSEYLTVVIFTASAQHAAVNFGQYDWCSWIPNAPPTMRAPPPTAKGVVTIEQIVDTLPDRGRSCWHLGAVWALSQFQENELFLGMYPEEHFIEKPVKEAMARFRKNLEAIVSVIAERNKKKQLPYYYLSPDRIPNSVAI
# Experiment: Activity of compounds against 5-LO enzyme (LTB4 measurement and/or fluorescence method)
# Format: biochemical
# Conditions: for inhibition at 10 µM: 5-LO, single concentration of 10 uM in duplicate; for IC50: 6 or 11 point dose response in duplicate
# Method: The activity of compounds against 5-LO were determined by measuring LTB4 (leukotriene B4) levels and/or by a fluorescence method. Both approaches are outlined in more detail below;
# Human 5-lipoxygenase (Cayman, Cat#60402) produced in insect cells was pre-incubated with compound for 15 min at RT in incubation buffer (50 mM Tris-Cl, pH 7.4, 2 mM CaCl2, 0.1 mM ATP, 1% DMSO). The enzymatic reaction was started by adding arachidonic acid to a final concentration of 3 uM. After 5 min of incubation at 37° C., the reaction was stopped by heatinactivation at 80° C. for 5 min. LTB4 levels were quantified by using LTB4 EIA kit (Cayman, Cat#520111) as instructed and/or LTB4 levelswere measured with LC/MS/MS using Quattro Premier™ XE tandem quadrupole mass spectrometer equipped with Acquity UPLC system (Waters, Milford, Mass.). The method was slightly modified as reported previously (Zweifel et al., 2008, Willey et al., 2008, Chappell et al, 2011). Briefly, chromatographic separation was carried out with Acquity UPLC BEH Shield RP18 Column (2.1 mm×50 mm, 1.7 μm particle size, Waters, Milford, Mass.). Sample injection volume was 10 μl, the column temperature was 35° C., the mobile phase A consisted of water with 0.1% formic acid and the mobile phase B consisted of acetonitrile with 0.1% formic acid. Flow rate was 0.4 mL/min and the gradient condition was as follows.
# Relative quantification of LTB4 and LTB4-d4 (Internal Standard) was done using multi reaction monitoring (MRM) of the transitions of m/z 335→195 for LTB4, 339→197 for LTB4-d4 in electrospray ionization (ESI) negative mode. Desolvation temperature was 400° C., source temperature was 130° C. Capillary voltage, cone voltage, and collision voltage were 3.5 kV, 30V, and 20 eV, respectively. Nitrogen was used for desolvation (750 L/h) and cone (50 L/h) gas. Argon was used for collision gas (0.22 ml/min). The dwell time was 10 ms.
# Besides the two methods quantifying LTB4 level, a fluorescence assay measuring 5-HpETE was introduced for high-throughput screening in a 384 well microplate format (Pufahl et al., 2007). For nonspecific ester cleavage of the acetate groups in H2DCFDA, the insect cell lysate expressing human 5-LO (Cayman Cat#60402) was incubated with H2DCFDA (50 mM Tris-Cl, pH 7.5, 2 mM CaCl2, 20 uM H2DCFDA, 500 mU 5-LO per reaction) for 5 minutes. Compound and enzyme mixture were pre-incubated for 5 minutes, and the enzymatic reaction was initiated by addition of ATP and arachidonic acid to a final concentration of 100 uM and 3 uM, respectively. After 5 minutes of incubation, the fluorescence was measured using Spectramax M5 (Molecular Device, Ex/Em=485 nm/530 nm). All steps were carried out at room temperature.
# A total of 378 compounds were initially tested at a single concentration of 10 uM in duplicate with the results summarized in Table 1. From these 378 compounds, 53 compounds plus an additional 25 were selected for confirmation of activity by 6 or 11 point dose response in duplicate with the corresponding IC50 values outlined in Table 2.
Structure (SMILES),inhibition at 10 µM,IC50
CCc1nc2ccc(Cl)cn2c1C(=O)NCc1ccc(C(C)(C)C)cc1 [compound 63],40 to 69%,–
"CCc1nc2ccccn2c1C(=O)NCc1ccc(OC(C)C)cc1 [compound 53, 2-Ethyl-N-(4-isopropoxybenzyl)imidazo[1,2-a]pyridine-3-carboxamide]",< 40%,–
"CCc1nc2cc(Cl)ccn2c1C(=O)NCc1ccc(-c2ccccc2Cl)cc1 [compound 82, 7-Chloro-N-((2′-chlorobiphenyl-4-yl)methyl)-2-ethylimidazo[1,2-a]pyridine-3-carboxamide]",40 to 69%,–
"COc1ccc(CCNC(=O)c2c(C)nc3ccccn23)cc1 [compound 8, N-(4-Methoxyphenethyl)-2-methylimidazo[1,2-a]pyridine-3-carboxamide]",< 40%,–
"CC(C)(C)c1ccc(CNC(=O)c2c(C(F)(F)F)nc3ccc(Cl)cn23)cc1 [compound 81, N-(4-tert-Butylbenzyl)-6-chloro-2-(trifluoromethyl)imidazo[1,2-a]pyridine-3-carboxamide]",< 40%,–
"Cc1nc2ccc(F)cn2c1C(=O)NCc1ccccc1 [compound 40, N-Benzyl-6-fluoro-2-methylimidazo[1,2-a]pyridine-3-carboxamide]",< 40%,–
"Cc1nc2ccc(C#N)cn2c1C(=O)NCc1ccccc1 [compound 30, N-Benzyl-6-cyano-2-methylimidazo[1,2-a]pyridine-3-carboxamide]",< 40%,–
"CCc1nc2ccc(Cl)cn2c1C(=O)NCc1ccc(-c2ccc(Cl)cc2)cc1 [compound 73, 6-Chloro-N-((4′-chlorobiphenyl-4-yl)methyl)-2-ethylimidazo[1,2-a]pyridine-3-carboxamide]",< 40%,–
"CCc1nc2ccc(Cl)cn2c1CN1CCN(c2ccc(F)cc2)CC1 [compound 397, 6-chloro-2-ethyl-3-((4-(4-fluorophenyl)piperazin-1-yl)methyl)imidazo[1,2-a]pyridine]",–,> 20 µM
CCc1nc2ccc(Cl)cn2c1C(=O)NCc1ccc(Oc2ccccc2)cc1 [compound 62],< 40%,–
"CCc1nc2ccc(Cl)cn2c1C(=O)NCc1ccc(-c2ccccc2C)cc1 [compound 75, 6-Chloro-2-ethyl-N-((2′-methylbiphenyl-4-yl)methyl)imidazo[1,2-a]pyridine-3-carboxamide]",40 to 69%,1 to 20 µM
"Cc1nc2cccc(C)n2c1C(=O)NCc1ccccc1 [compound 34, N-Benzyl-2,5-dimethylimidazo[1,2-a]pyridine-3-carboxamide]",40 to 69%,–
"Cc1nc2ccccn2c1C(=O)NCc1ccc(C(=O)O)cc1 [compound 26, 4-((2-Methylimidazo[1,2-a]pyridine-3-carboxamido)methyl)benzoic acid]",< 40%,–
"CCCc1nc2ccccn2c1C(=O)NCc1ccccc1 [compound 37, N-Benzyl-2-propylimidazo[1,2-a]pyridine-3-carboxamide]",< 40%,–

# Continued, values first:
inhibition at 10 µM,IC50,Structure (SMILES)
< 40%,–,"CCc1nc2c(-c3ccncc3)cccn2c1C(=O)NCc1ccc(N2CCN(c3ccc(F)cc3)CC2)cc1 [compound 283, 2-Ethyl-N-(4-(4-(4-fluorophenyl)piperazin-1-yl)benzyl)-8-(pyridin-4-yl)imidazo[1,2-a]pyridine-3-carboxamide]"
40 to 69%,–,"CCc1nc2ccc(F)cn2c1C(=O)NCc1ccc(OCc2ccc(OC(F)(F)F)cc2)cc1 [compound 205, 2-Ethyl-6-fluoro-N-(4-(4-(trifluoromethoxy)benzyloxy)benzyl)imidazo[1,2-a]pyridine-3-carboxamide]"
> 69%,> 20 µM,"CCc1nc2cc(Cl)ccn2c1C(=O)NCc1ccc(N2CC=CCC2)cc1 [compound 194, 7-Chloro-N-(4-(5,6-dihydropyridin-1(2H)-yl)benzyl)-2-ethylimidazo[1,2-a]pyridine-3-carboxamide]"
> 69%,–,"CCc1nc2ccc(Cl)cn2c1C(=O)NCc1ccc(N2CCC(c3ccc(Cl)cc3)CC2)cc1 [compound 296, 6-Chloro-N-(4-(4-(4-chlorophenyl)piperidin-1-yl)benzyl)-2-ethylimidazo[1,2-a]pyridine-3-carboxamide]"
40 to 69%,–,"CCc1nc2ccc(C(F)(F)F)cn2c1C(=O)NCc1ccc(OC(F)(F)F)cc1 [compound 121, 2-Ethyl-N-(4-(trifluoromethoxy)benzyl)-6-(trifluoromethyl)imidazo[1,2-a]pyridine-3-carboxamide]"
< 40%,–,"CCc1nc2ccc(Cl)cn2c1C(=O)NCc1ccc(N2CCC(c3ccc(OC(F)(F)F)cc3)CC2)cc1 [compound 267, 6-Chloro-2-ethyl-N-(4-(4-(4-(trifluoromethoxy)phenyl)piperidin-1-yl)benzyl)imidazo[1,2-a]pyridine-3-carboxamide]"
< 40%,–,"CCc1nc2c(OC)cccn2c1C(=O)NCc1ccc(N2CCOCC2)cc1 [compound 262, 2-Ethyl-8-methoxy-N-(4-morpholinobenzyl)imidazo[1,2-a]pyridine-3-carboxamide]"
40 to 69%,–,"CCc1nc2cc(Cl)ccn2c1NC(=O)c1ccc(-c2ccccc2)cc1 [compound 115, N-(7-Chloro-2-ethylimidazo[1,2-a]pyridin-3-yl)biphenyl-4-carboxamide]"
< 40%,–,"CCc1nc2cc(Cl)ccn2c1C(=O)NCc1ccc(N2CCCCC2)cc1 [compound 89, 7-Chloro-2-ethyl-N-(4-(piperidin-1-yl)benzyl)imidazo[1,2-a]pyridine-3-carboxamide]"
> 69%,–,"CCc1nc2cc(Cl)ccn2c1CNc1ccc(NC2CCN(c3ccc(F)cc3)CC2)cc1 [compound 375, N1-((7-chloro-2-ethylimidazo[1,2-a]pyridin-3-yl)methyl)-N4-(1-(4-fluorophenyl)piperidin-4-yl)benzene-1,4-diamine]"
< 40%,–,"CCc1nc2ccc(Cl)cn2c1C(=O)NCc1nc2ccc(Cl)cc2[nH]1 [compound 365, 6-chloro-N-((6-chloro-1H-benzo[d]imidazol-2-yl)methyl)-2-ethylimidazo[1,2-a]pyridine-3-carboxamide]"
< 40%,–,"CCc1nc2ccc(Cl)cn2c1CNCc1ccc(F)cc1 [compound 338, 1-(6-chloro-2-ethylimidazo[1,2-a]pyridin-3-yl)-N-(4-fluorobenzyl)methanamine]"
40 to 69%,–,"CCc1nc2ccc(Cl)cn2c1C(=O)NCc1ccc2[nH]c(-c3ccc(OC(F)(F)F)cc3)nc2c1 [compound 185, 6-Chloro-2-ethyl-N-((2-(4-(trifluoromethoxy)phenyl)-1H-benzo[d]imidazol-5-yl)methyl)imidazo[1,2-a]pyridine-3-carboxamide]"
> 69%,–,"CCc1nc2ccc(Cl)cn2c1CN1CCC(OCc2ccc(OC(F)(F)F)cc2)CC1 [compound 347, 6-chloro-2-ethyl-3-((4-((4-(trifluoromethoxy)benzyl)oxy)piperidin-1-yl)methyl)imidazo[1,2-a]pyridine]"

# — patent US9029389B2 (Institut Pasteur Korea, priority 2011, dated 2015)
